Values after ≈ are worked out from the molar mass of the structure shown. Read-outs that look alike come from different tables or passages of the source.
How the values were obtained:
Test in all cases: MIC, microdilution broth method (NCCLS)
Format in all cases: cell-based
E. coli OC2605 = conditions: A: E. coli OC2605, 35° C., 16-20 hours
Description: (§1) Minimal inhibitory concentration (MIC) has been an indicator of in vitro antibacterial activity widely used in the art. The in vitro antimicrobial activity of the compounds was determined by the microdilution broth method following the test method from the National Committee for Clinical Laboratory Standards (NCCLS). This method is described in the NCCLS Document M7-A4, Vol. 17, No. 2, “Methods for Dilution Antimicrobial Susceptibility Test for Bacteria that Grow Aerobically—Fourth Edition”, which is incorporated herein by reference.
(§2) In this method two-fold serial dilutions of drug in cation adjusted Mueller-Hinton broth are added to wells in microdilution trays. The test organisms are prepared by adjusting the turbidity of actively growing broth cultures so that the final concentration of test organism after it is added to the wells is approximately 5×10^4 CFU/well.
(§3) Following inoculation of the microdilution trays, the trays are incubated at 35° C. for 16-20 hours and then read. […] The amount of growth in the wells containing the test compound is compared with the amount of growth in the growth-control wells (no test compound) used in each tray. As set forth in Table 1, compounds of the present invention were tested against a variety of Gram positive and Gram negative pathogenic bacteria resulting in a range of activities depending on the organism tested.

S. aureus ATCC29213 = conditions: B: S. aureus ATCC29213, 35° C., 16-20 hours
Description: as §1, §2, §3

S. pneumoniae ATCC49619 = conditions: D: S. pneumoniae ATCC49619, 35° C., 16-20 hours
Description: as §1, §2, §3

E. faecalis ATCC29212 = conditions: C: E. faecalis ATCC29212, 35° C., 16-20 hours
Description: as §1, §2, §3

H. influenzae ATCC49247 = conditions: E: H. influenzae ATCC49247, 35° C., 16-20 hours
Description: as §1, §2, §3

Row | MIC (E. coli OC2605) [µg/mL] | MIC (S. aureus ATCC29213) [µg/mL] | MIC (S. pneumoniae ATCC49619) | MIC (E. faecalis ATCC29212) [µg/mL] | MIC (H. influenzae ATCC49247) [µg/mL] | MIC (E. coli OC2605; Escherichia coli, read-out: MIC) [µg/mL] | MIC (S. aureus ATCC29213; Staphylococcus aureus, read-out: MIC) [µg/mL] | MIC (H. influenzae ATCC49247; Haemophilus influenzae, read-out: MIC) [µg/mL] | MIC (E. faecalis ATCC29212; Enterococcus faecalis, read-out: MIC) [µg/mL] | SMILES
1 | 8 (≈ 9.58 µM) | 0.12 (≈ 0.144 µM) | ≦0.015 μg/mL | 0.03 (≈ 0.0359 µM) | – | – | – | – | – | CC[C@H]1OC(=O)[C@H](C)C(=O)[C@H](C)[C@@H](O[C@@H]2O[C@H](C)C[C@H](N(C)C)[C@H]2O)[C@](C)(OC(=O)NC/C=C/c2cccc(-c3ccccn3)c2)C[C@@H](C)C(=O)[C@H](C)[C@H]2NC(=O)O[C@@]21C [Compound 36]
2 | 16 (≈ 19.8 µM) | 0.5 (≈ 0.618 µM) | 0.03 µg/mL (≈ 0.0371 µM) | 0.12 (≈ 0.148 µM) | – | – | – | – | – | CC[C@H]1OC(=O)[C@H](C)C(=O)[C@H](C)[C@@H](O[C@@H]2O[C@H](C)C[C@H](N(C)C)[C@H]2O)[C@](C)(OC(=O)NCc2cccc(-c3ccccn3)c2)C[C@@H](C)C(=O)[C@H](C)[C@H]2NC(=O)O[C@@]21C [Compound 37]
3 | 8 (≈ 9.89 µM) | 0.12 (≈ 0.148 µM) | ≦0.015 μg/mL | 0.03 (≈ 0.0371 µM) | – | – | – | – | – | CC[C@H]1OC(=O)[C@H](C)C(=O)[C@H](C)[C@@H](O[C@@H]2O[C@H](C)C[C@H](N(C)C)[C@H]2O)[C@](C)(OC(=O)NC/C=C/c2ccc3ncccc3c2)C[C@@H](C)C(=O)[C@H](C)[C@H]2NC(=O)O[C@@]21C [Compound 38]
4 | 16 (≈ 19.4 µM) | 1 (≈ 1.21 µM) | 0.12 µg/mL (≈ 0.145 µM) | 0.5 (≈ 0.606 µM) | – | – | – | – | – | CC[C@H]1OC(=O)[C@H](C)C(=O)[C@H](C)[C@@H](O[C@@H]2O[C@H](C)C[C@H](N(C)C)[C@H]2O)[C@](C)(OC(=O)NC/C=C/c2ccc(-n3cnnc3)cc2)C[C@@H](C)C(=O)[C@H](C)[C@H]2NC(=O)O[C@@]21C [Compound 40]
5 | 16 (≈ 19.8 µM) | 0.25 (≈ 0.309 µM) | – | 0.06 (≈ 0.0742 µM) | 2 (≈ 2.47 µM) | – | – | – | – | CC[C@H]1OC(=O)[C@H](C)C(=O)[C@H](C)[C@@H](O[C@@H]2O[C@H](C)C[C@H](N(C)C)[C@H]2O)[C@](C)(OC(=O)NC/C=C/c2cccc3cccnc23)C[C@@H](C)C(=O)[C@H](C)[C@H]2NC(=O)O[C@@]21C [Compound 46]
6 | 16 (≈ 19.8 µM) | 0.25 (≈ 0.309 µM) | – | 0.06 (≈ 0.0742 µM) | 1 (≈ 1.24 µM) | – | – | – | – | CC[C@H]1OC(=O)[C@H](C)C(=O)[C@H](C)[C@@H](O[C@@H]2O[C@H](C)C[C@H](N(C)C)[C@H]2O)[C@](C)(OC(=O)NC/C=C/c2ccc3cccnc3c2)C[C@@H](C)C(=O)[C@H](C)[C@H]2NC(=O)O[C@@]21C [Compound 47]
7 | >16 | 0.5 (≈ 0.606 µM) | – | 0.12 (≈ 0.145 µM) | 4 (≈ 4.85 µM) | – | – | – | – | CC[C@H]1OC(=O)[C@H](C)C(=O)[C@H](C)[C@@H](O[C@@H]2O[C@H](C)C[C@H](N(C)C)[C@H]2O)[C@](C)(OC(=O)NC/C=C/c2cccc(-n3cccn3)n2)C[C@@H](C)C(=O)[C@H](C)[C@H]2NC(=O)O[C@@]21C [Compound 48]
8 | – | – | – | – | – | > 16 | 1 (≈ 1.19 µM) | 2 (≈ 2.39 µM) | 0.25 (≈ 0.298 µM) | CC[C@H]1OC(=O)[C@H](C)[C@@H](O)[C@H](C)[C@@H](O[C@@H]2O[C@H](C)C[C@H](N(C)C)[C@H]2O)[C@](C)(OC(=O)NC/C=C/c2ccc(-c3ncccn3)cc2)C[C@@H](C)C(=O)[C@H](C)[C@H]2NC(=O)O[C@@]21C [Compound 95]
9 | 8 (≈ 9.37 µM) | 0.5 (≈ 0.585 µM) | – | 0.12 (≈ 0.141 µM) | 1 (≈ 1.17 µM) | – | – | – | – | CCC1OC(=O)C(C)(F)C(=O)C(C)C(OC2OC(C)CC(N(C)C)C2O)C(C)(OC(=O)NCC=Cc2ccc(-c3cccnn3)cc2)CC(C)C(=O)C(C)C2NC(=O)OC12C (centres unmarked) [Compound 99]
10 | 16 (≈ 18.7 µM) | 0.5 (≈ 0.585 µM) | – | 0.12 (≈ 0.141 µM) | 2 (≈ 2.34 µM) | – | – | – | – | CCC1OC(=O)C(C)(F)C(=O)C(C)C(OC2OC(C)CC(N(C)C)C2O)C(C)(OC(=O)NCC=Cc2ccc(-c3ccncn3)cc2)CC(C)C(=O)C(C)C2NC(=O)OC12C (centres unmarked) [Compound 100]
11 | >16 | – | 2 µg/mL (≈ 2.35 µM) | 4 (≈ 4.71 µM) | >16 | – | – | – | – | CC[C@H]1OC(=O)[C@H](C)C(=O)[C@H](C)[C@@H](O[C@@H]2O[C@H](C)C[C@H](N(C)C)[C@H]2O)[C@](C)(OC(=O)NC2CC(c3ccc(-c4ncccn4)cc3)C2)C[C@@H](C)C(=O)[C@H](C)[C@H]2NC(=O)O[C@@]21C (some centres unmarked) [Compound 136]

Source: patent US6613747B2, “6-O-carbamoyl ketolide antibacterials” (Ortho-McNeil Pharmaceutical, Inc., priority 2000, dated 2003)
